According to US8106055B2, “Substituted amide compounds” (Gruenenthal GmbH, priority 2007, dated 2012):
Like-named read-outs stand apart in the source and are kept apart here.

Assays:
[1] = molecular target: T1, human bradykinin 1 receptor (B1R) (Homo sapiens, UniProt P46663); experiment: Functional investigation on the human bradykinin 1 receptor (B1R), Ca2+ FLIPR assay in CHO K1 hB1R cells; type: cell-based
T1 construct: expressed in transfected cells; host or cells: CHO K1 cells
T1 sequence (P46663 1-353): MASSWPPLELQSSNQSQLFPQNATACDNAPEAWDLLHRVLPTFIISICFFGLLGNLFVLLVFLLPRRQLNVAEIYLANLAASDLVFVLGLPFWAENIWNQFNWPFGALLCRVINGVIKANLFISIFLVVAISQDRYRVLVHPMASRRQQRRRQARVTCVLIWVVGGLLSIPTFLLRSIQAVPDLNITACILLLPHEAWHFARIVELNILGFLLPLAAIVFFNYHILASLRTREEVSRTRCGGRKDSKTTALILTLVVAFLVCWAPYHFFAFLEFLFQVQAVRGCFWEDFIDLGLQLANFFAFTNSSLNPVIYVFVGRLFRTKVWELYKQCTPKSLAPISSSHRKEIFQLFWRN
Excerpt: (§1) Functional Investigation on the Human Bradykinin 1 Receptor (B1R)
(§2) The agonistic or antagonistic action of substances can be determined on the bradykinin 1 receptor (B1R) of the human species and rats with the following assay. In accordance with this assay, the Ca^2+ inflow through the channel is quantified with the aid of a Ca^2=-sensitive dyestuff (type Fluo-4, Molecular Probes Europe BV, Leiden, Holland) in a fluorescent imaging plate reader (FLIPR, Molecular Devices, Sunnyvale, USA).
(§3) Chinese hamster ovary cells (CHO K1 cells) transfected stably with the human B1R gene (hB1R cells) or the B1R gene of the rat (rB1R cells) are used. For functional studies, these cells are plated out on black 96-well plates with a clear base (BD Biosciences, Heidelberg, Germany or Greiner, Frickenhausen, Germany) in a density of 20,000-35,000 cells/well. The cells are left overnight at 37° C. and 5% CO2 in culture medium (hB1R cells: Nutrient Mixture Ham's F12, Gibco Invitrogen GmbH, Karlsruhe, Germany or DMEM, Sigma-Aldrich, Taufkirchen, Germany; rB1R cells: D-MEM/F12, Gibco Invitrogen GmbH, Karlsruhe, Germany) with 10 vol. % of FBS (foetal bovine serum, Gibco Invitrogen GmbH, Karlsruhe, Germany or PAN Biotech GmbH, Aidenbach, Germany).
(§4) On the following day, the cells are loaded for 60 min at 37° C. with 2.13 μM Fluo-4 (Molecular Probes Europe BV, Leiden, The Netherlands) in HBSS buffer (Hank's buffered saline solution, Gibco Invitrogen GmbH, Karlsruhe, Germany) with 2.5 mM probenecid (Sigma-Aldrich, Taufkirchen, Germany) and 10 mM HEPES (Sigma-Aldrich, Taufkirchen, Germany). The plates are then washed 2× with HBSS buffer, and HBSS buffer which additionally contains 0.1% of BSA (bovine serum albumin; Sigma-Aldrich, Taufkirchen, Germany), 5.6 mM glucose and 0.05% of gelatine (Merck KGaA, Darmstadt, Germany) is added. After a further incubation of 20 minutes at room temperature, the plates are inserted into the FLIPR for the Ca^2+ measurement.
(§5) Alternatively, the plates are washed with buffer A (15 mM HEPES, 80 mM NaCl, 5 mM KCl, 1.2 mM CaCl2, 0.7 mM MgSO4, 2 g/l glucose, 2.5 mM probenecid), buffer A is added and the plates are loaded with 2.5 μM Fluo-4 and 0.025% of Pluronic F127 (Sigma-Aldrich, Taufkirchen, Germany). Thereafter, the cells are washed 2× with buffer A and incubated for 30 minutes with buffer A, which additionally contains 0.05% of BSA and 0.05% of gelatine, at room temperature and thereafter inserted into the FLIPR for the Ca^2+ measurement.
(§6) The Ca^2+-dependent fluorescence is measured before and after addition of substances (λex=488 nm, λem=540 nm). Quantification is by measurement of the highest fluorescence intensity (FC, fluorescence counts) over time.
(§7) The FLIPR protocol consists of 2 additions of substance. Test substances (10 μM) are first pipetted on to the cells and the Ca^2+ inflow is compared with the control (hB1R: Lys-Des-Arg^9-bradykinin >=50 nM; rB1R: Des-Arg^9-bradykinin 10 μM). This gives the information in % activation based on the Ca^2+ signal after addition of Lys-Des-Arg^9-bradykinin (>=50 nM) or Des-Arg^9-bradykinin (10 μM).
(§8) After incubation for 10-20 minutes, Lys-Des-Arg^9-bradykinin (hB1R) or Des-Arg^9-bradykinin (rB1R) is applied in the concentration of the EC80 and the inflow of Ca^2+ is likewise determined.
(§9) Antagonists lead to a suppression of the Ca^2+ inflow. % inhibition compared with the maximum achievable inhibition is calculated.
(§10) To determine the IC50 value, the substances are added in various concentrations. Duplicate or triplicate determinations (n=2 or n=3) are carried out, and these are repeated in at least one further independent experiment (N>=2).
(§11) Preferably, the compounds have a B1R antagonistic action on the human receptor and/or on the rat receptor. The following data are given by way of example in the following table: (In this, “B1R Ant. h” represents “B1R antagonism human” and “B1R Ant. r” represents “B1R antagonism rat”)

[2] = molecular target: T2, bradykinin 1 receptor (B1R) of the rat (Rattus norvegicus, UniProt P97583); experiment: Functional investigation on the rat bradykinin 1 receptor (B1R), Ca2+ FLIPR assay in CHO K1 rB1R cells; type: cell-based
T2 construct: expressed in transfected cells; host or cells: CHO K1 cells
T2 sequence (P97583 1-337): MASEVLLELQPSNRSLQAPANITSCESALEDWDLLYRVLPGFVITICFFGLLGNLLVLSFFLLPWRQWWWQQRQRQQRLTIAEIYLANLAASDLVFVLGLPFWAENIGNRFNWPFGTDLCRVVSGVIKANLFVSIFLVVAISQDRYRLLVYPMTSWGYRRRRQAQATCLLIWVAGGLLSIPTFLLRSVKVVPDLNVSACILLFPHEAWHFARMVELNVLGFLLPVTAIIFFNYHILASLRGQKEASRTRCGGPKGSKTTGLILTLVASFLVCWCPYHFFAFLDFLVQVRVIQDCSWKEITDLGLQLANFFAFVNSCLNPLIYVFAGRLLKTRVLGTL
Excerpt: as §1, §2, §3, §4, §5, §6, §7, §8, §9, §10, §11

[3] = CHO-K1, B1R antagonism human, test substance 10 μM, Ca2+ FLIPR, CHO K1 hB1R cells, read-out: B1R Ant. h [10 μM] % Inhibition
[4] = CHO-K1, B1R antagonism rat, test substance 10 μM, Ca2+ FLIPR, CHO K1 rB1R cells, read-out: B1R Ant. r [10 μM] % Inhibition
[5] = CHO-K1, read-out: B1R Ant. h [10 μM] % Inhibition
[6] = CHO-K1, read-out: B1R Ant. r [10 μM] % Inhibition

SMILES | inhibition at 10 µM [1, 3] | inhibition at 10 µM [2, 4] | inhibition at 10 µM [1, 5] | inhibition at 10 µM [2, 6]
CN(C)C(c1ccccc1)C1CCC(NC(=O)CNC(=O)c2nc(CS(=O)(=O)c3ccccc3)no2)CC1 (stereo not drawn) [Example 769, 3-benzenesulfonylmethyl-[1,2,4]oxadiazole-5-carboxylic acid {[4-(dimethylamino-phenyl-methyl)-cyclohexylcarbamoyl]-methyl}-amide] | 15% | 39% | – | –
Cc1cc(Cl)cc(Cl)c1-c1noc(C(=O)NCC(=O)NC2CCC(C(c3ccccc3)N(C)C)CC2)n1 (stereo not drawn) [Example 762, 3-(2,4-dichloro-6-methyl-phenyl)-[1,2,4]oxadiazole-5-carboxylic acid {[4-(dimethylamino-phenyl-methyl)-cyclohexylcarbamoyl]-methyl}-amide] | 73% | 25% | – | –
COc1ccccc1-c1noc(C(=O)NCC(=O)NC2CCC(C(CCc3ccccc3)N(C)C)CC2)n1 (stereo not drawn) [Example 782, 3-(2-methoxy-phenyl)-[1,2,4]oxadiazole-5-carboxylic acid {[4-(1-dimethylamino-3-phenyl-propyl)-cyclohexylcarbamoyl]-methyl}-amide] | -6% | -11% | – | –
CN(C)C(c1ccccc1)C1CCC(NC(=O)CCNC(=O)c2nc(-c3cc(Cl)cc(Cl)c3)no2)CC1 (stereo not drawn) [Example 761, 3-(3,5-dichloro-phenyl)-[1,2,4]oxadiazole-5-carboxylic acid {2-[4-(dimethylamino-phenyl-methyl)-cyclohexylcarbamoyl]-ethyl}-amide] | – | – | 34% | 15%
CN(C)C(CCc1ccccc1)C1CCC(NC(=O)CNC(=O)c2nc(-c3c(Cl)cccc3Cl)no2)CC1 (stereo not drawn) [Example 793, 3-(2,6-dichloro-phenyl)-[1,2,4]oxadiazole-5-carboxylic acid {[4-(1-dimethylamino-3-phenyl-propyl)-cyclohexylcarbamoyl]-methyl}-amide] | 104% | 6% | – | –
COc1ccccc1-c1noc(C(=O)NCC(=O)NC2CCC(C(c3ccccc3)N(C)C)CC2)n1 (stereo not drawn) [Example 763, 3-(2-methoxy-phenyl)-[1,2,4]oxadiazole-5-carboxylic acid {[4-(dimethylamino-phenyl-methyl)-cyclohexylcarbamoyl]-methyl}-amide] | -10% | 22% | – | –
CN(C)C(c1ccccc1)C1CCC(NC(=O)CNC(=O)c2nc(-c3c(Cl)cccc3Cl)no2)CC1 (stereo not drawn) [Example 770, 3-(2,6-dichloro-phenyl)-[1,2,4]oxadiazole-5-carboxylic acid {[4-(dimethylamino-phenyl-methyl)-cyclohexylcarbamoyl]-methyl}-amide] | 53% | 16% | – | –
CN(C)C(c1ccccc1)C1CCC(NC(=O)CNC(=O)c2nc(-c3cccs3)no2)CC1 (stereo not drawn) [Example 764, 3-thiophen-2-yl-[1,2,4]oxadiazole-5-carboxylic acid {[4-(dimethylamino-phenyl-methyl)-cyclohexylcarbamoyl]-methyl}-amide] | 17% | -31% | – | –
CN(C)C(c1cccc(F)c1)C1CCC(CNC(=O)CNC(=O)c2nc(CS(=O)(=O)c3ccccc3)no2)CC1 (stereo not drawn) [Example 781, 3-benzenesulfonylmethyl-[1,2,4]oxadiazole-5-carboxylic acid [({4-[dimethylamino-(3-fluoro-phenyl)-methyl]-cyclohexylmethyl}-carbamoyl)-methyl]-amide] | -4% | -35% | – | –
CN(C)C(c1cccs1)C1CCC(NC(=O)CNC(=O)c2nc(-c3ccc(C(C)(C)C)cc3)no2)CC1 (stereo not drawn) [Example 779, 3-(4-tert-butyl-phenyl)-[1,2,4]oxadiazole-5-carboxylic acid {[4-(dimethylamino-thiophen-2-yl-methyl)-cyclohexylcarbamoyl]-methyl}-amide] | -10% | -13% | – | –
CN(C)C(c1ccccc1)C1CCC(NC(=O)CNC(=O)c2nc(-c3cc(Cl)cc(Cl)c3)no2)CC1 (stereo not drawn) [Example 760, 3-(3,5-dichloro-phenyl)-[1,2,4]oxadiazole-5-carboxylic acid {[4-(dimethylamino-phenyl-methyl)-cyclohexylcarbamoyl]-methyl}-amide] | 66% | -4% | – | –
CN(C)C(c1ccccc1)C1CCC(NC(=O)CCNC(=O)c2nc(-c3ccc(Cl)cc3Cl)no2)CC1 (stereo not drawn) [Example 773, 3-(2,4-dichloro-phenyl)-[1,2,4]oxadiazole-5-carboxylic acid {2-[4-(dimethylamino-phenyl-methyl)-cyclohexylcarbamoyl]-ethyl}-amide] | 20% | 17% | – | –
CN(C)C(c1cccc(F)c1)C1CCC(CNC(=O)CCNC(=O)c2nc(-c3cccs3)no2)CC1 (stereo not drawn) [Example 780, 3-thiophen-2-yl-[1,2,4]oxadiazole-5-carboxylic acid [2-({4-[dimethylamino-(3-fluoro-phenyl)-methyl]-cyclohexylmethyl}-carbamoyl)-ethyl]-amide] | -12% | -2% | – | –
CN(C)C(CCc1ccccc1)C1CCC(NC(=O)CCNC(=O)c2nc(-c3ccc4c(c3)OCO4)no2)CC1 (stereo not drawn) [Example 792, 3-benzo[1,3]dioxol-5-yl-[1,2,4]oxadiazole-5-carboxylic acid {2-[4-(1-dimethylamino-3-phenyl-propyl)-cyclohexylcarbamoyl]-ethyl}-amide] | – | – | 9% | 2%
COc1ccc(-c2noc(C(=O)NCC(=O)NC3CCC(C(c4ccccc4)N(C)C)CC3)n2)cc1OC (stereo not drawn) [Example 775, 3-(3,4-dimethoxy-phenyl)-[1,2,4]oxadiazole-5-carboxylic acid {[4-(dimethylamino-phenyl-methyl)-cyclohexylcarbamoyl]-methyl}-amide] | -7% | 20% | – | –
